Laboratory results: ChEMBL document CHEMBL5584263, “Novel inhibitor N-cyclopropyl-4-((4-((4-(trifluoromethyl)phenyl)sulfonyl)piperazin-1-yl)methyl)benzamide attenuates RANKL-mediated osteoclast differentiation in vitro” (Bioorg Med Chem Lett, 2024)
Calls of active or inactive are those of the source. The rule behind the calls is not given here.

Assays:
[1] = system: BMMC; experiment: Inhibition of osteoclast differentiation in mouse BMMCs assessed as reduction in Cathepsin K mRNA expression at 1.25 uM incubated for 3 days by qRT-PCR analysis; assay type: functional, cell-based; details: time 3.0 day
[2] = system: BMMC; experiment: Inhibition of osteoclast differentiation in mouse BMMCs assessed as reduction in Cathepsin K protein expression at 1.25 uM incubated for 3 days by immunoblotting analysis; assay type: functional, cell-based; details: time 3.0 day
[3] = system: BMMC; experiment: Inhibition of osteoclastogenesis in mouse BMMC assessed as reduction in fusion of mononuclear osteoclast cells to form large multinucleated osteoclast cells at 0.25 to 2 uM; assay type: functional, cell-based; details: dose 0.25-2 µM
[4] = system: BMMC; experiment: Inhibition of osteoclastogenesis in mouse BMMC at 0.5 uM by TRAP staining based assay; assay type: functional
[5] = system: BMMC; experiment: Inhibition of RANKL mediated […] differentiation in mouse BMMC incubated for 4 days by TRAP staining based assay; assay type: functional, cell-based; details: dose 0.25-2 µM, time 4.0 day
[6] = system: BMMC; experiment: Inhibition of osteoclast differentiation in mouse BMMCs assessed as reduction in Dc-stamp mRNA expression at 1.25 uM incubated for 3 days by qRT-PCR analysis; assay type: functional, cell-based; details: time 3.0 day
[7] = system: BMMC; experiment: Inhibition RANKL-induced F-actin ring formation in mouse BMMC at 0.625 to 2.5 uM incubated for 4 days by immunofluorescence assay; assay type: functional, cell-based; details: dose 0.625-2.5 µM, time 4.0 day
[8] = system: BMMC; experiment: Inhibition of osteoclastogenesis in mouse BMMC by TRAP staining based assay; assay type: functional, cell-based
[9] = system: BMMC; experiment: Inhibition of osteoclast differentiation in mouse BMMCs assessed as reduction in Mmp9 mRNA expression at 1.25 uM incubated for 3 days by qRT-PCR analysis; assay type: functional, cell-based; details: time 3.0 day
[10] = Partition coefficient, logP of compound; assay type: physicochemical; details: octanol/water
[11] = system: BMMC; experiment: Inhibition RANKL-induced bone resorption in mouse BMMC at 0.625 to 2.5 uM incubated for 4 days by immunofluorescence assay; assay type: functional, cell-based; details: dose 0.625-2.5 µM, time 4.0 day
[12] = system: BMMC; experiment: Inhibition of osteoclast differentiation in mouse BMMCs assessed as reduction in ACP5 mRNA expression at 1.25 uM incubated for 3 days by qRT-PCR analysis; assay type: functional, cell-based; details: time 3.0 day
[13] = system: BMMC; experiment: Inhibition of RANKL mediated […] differentiation in mouse BMMC at 0.25 to 2 uM incubated for 4 days by TRAP staining based assay; assay type: functional, cell-based; details: dose 0.25-2 µM, time 4.0 day
[14] = system: BMMC; experiment: Inhibition of osteoclastogenesis in mouse BMMC at 1 uM by TRAP staining based assay; assay type: functional
[15] = system: BMMC; experiment: Inhibition of osteoclast differentiation in mouse BMMCs assessed as reduction in Nfatc1 mRNA expression at 1.25 uM incubated for 3 days by qRT-PCR analysis; assay type: functional, cell-based; details: time 3.0 day
[16] = system: Calvarial osteoblast; experiment: Effect on cell viability in osteoblast cells (unknown origin) upto 4 uM incubated for 48 hrs by MTT assay; assay type: toxicity, cell-based
[17] = system: BMMC; experiment: Inhibition of osteoclast differentiation in mouse BMMCs assessed as reduction in […] mRNA expression at 1.25 uM incubated for 3 days by qRT-PCR analysis; assay type: functional, cell-based; details: time 3.0 day
[18] = system: BMMC; experiment: Inhibition of osteoclast differentiation in mouse BMMCs assessed as reduction in NFATc1 protein expression at 1.25 uM incubated for 3 days by immunoblotting analysis; assay type: functional, cell-based; details: time 3.0 day
[19] = Effect on mouse BMMCs viability at below 10 uM incubated for 48 hrs by MTT assay; assay type: toxicity, cell-based; details: bmmc
[20] = system: BMMC; experiment: Inhibition of osteoclastogenesis in mouse BMMC at 2 uM by TRAP staining based assay; assay type: functional
[21] = system: BMMC; experiment: Inhibition of osteoclast differentiation in mouse BMMCs assessed as reduction in c-fos protein expression at 1.25 uM incubated for 3 days by immunoblotting analysis; assay type: functional, cell-based; details: time 3.0 day
[22] = system: Mus musculus; experiment: Inhibition of osteoclast differentiation in ovariectomized osteoporosis mouse model at 10 mg/kg, ip administered for 4 weeks; assay type: functional, organism-based

Compound	inhibition at 0.5 µM [4] [%]	IC50 [8] [µM]	logP [10]	inhibition at 1 µM [14] [%]	inhibition at 2 µM [20] [%]	other results
O=C(NC1CC1)c1ccc(CN2CCN(S(=O)(=O)c3ccc(C(F)(F)F)cc3)CC2)cc1	17.7	0.64	3.5	72	96.8	inhibition [1]: Active; inhibition [2]: Active; inhibition [3]: Active; inhibition [5]: Dose-Dependent Effect; inhibition [6]: Active; inhibition [7]: Active; inhibition [9]: Active; inhibition [11]: Active; inhibition [12]: Active; inhibition [13]: Active; inhibition [15]: Active; Activity [16]: Non-Toxic; inhibition [17]: Active; inhibition [18]: Active; Activity [19]: Non-Toxic; inhibition [21]: Active; inhibition [22]: inactive
CC(C)(C)c1ccc(S(=O)(=O)N2CCN(Cc3ccc(C(=O)NC4CC4)cc3)CC2)cc1	23.6	0.55	4.1	74.1	100	
CCCCCCCCS(=O)(=O)N1CCN(Cc2ccc(C(=O)NC3CC3)cc2)CC1	23.9	1.14	5.7	33.2	84	
O=C(NC1CC1)c1ccc(CN2CCN(S(=O)(=O)c3cccc(Cl)c3)CC2)cc1	-49.2	3.03	3.3	25.2	71.7	
O=C(NC1CC1)c1ccc(CN2CCN(S(=O)(=O)c3ccc(-c4ccccc4)cc3)CC2)cc1	9.56	0.75	4.1	64.6	100	
O=C(NC1CC1)c1ccc(CN2CCN(S(=O)(=O)c3ccc([N+](=O)[O-])cc3)CC2)cc1	48.9	1.69	2.6	25.5	46.7	
CC(=O)c1ccc(S(=O)(=O)N2CCN(Cc3ccc(C(=O)NC4CC4)cc3)CC2)cc1	17.6	7.24	2.3	16.9	14.7	
COc1cccc(S(=O)(=O)N2CCN(Cc3ccc(C(=O)NC4CC4)cc3)CC2)c1	-22.8		2.7	-20.9	-5.21	
COc1ccc(S(=O)(=O)N2CCN(Cc3ccc(C(=O)NC4CC4)cc3)CC2)cc1	-9.9	221	2.6	-13.8	10.6	
